# In ChEMBL document CHEMBL1122830, “N-(Phosphonoacetyl)amino phosphonates. Phosphonate analogues of N-(phosphonoacetyl)-L-aspartic acid (PALA)” (1985):
# The source made the active and inactive calls. The calls are words filed in the database; no cut-off is given here.
# System: KB
# Test: Inhibitory activity against human KB cell line at the dose range of 1-400 (ug/mL); NA=Not active
# Assay type: functional, cell-based
# Details: not given
row,SMILES,ID50
1,CCOP(=O)(OCC)C(N)C1CCC1 (stereo unspecified),inactive
2,CCP(=O)(O)CNC(=O)CP(=O)(O)O,inactive
3,O=C(O)CC(NC(=O)CP(=O)(O)O)P(=O)(O)O (stereo unspecified),inactive
4,CCOP(=O)(OCC)C(N)C1CC1 (stereo unspecified),inactive
5,CC(C)(NC(=O)CP(=O)(O)O)P(=O)(O)O,inactive
6,O=C(CP(=O)(O)O)NC(C1CC1)P(=O)(O)O (stereo unspecified),inactive
7,O=C(CP(=O)(O)O)NC(C1CCCCC1)P(=O)(O)O (stereo unspecified),inactive
8,O=C(O)CCC(NC(=O)CP(=O)(O)O)P(=O)(O)O (stereo unspecified),inactive
9,CCOP(=O)(OCC)C(N)C1CCCC1 (stereo unspecified),inactive
10,O=C(O)CC(NC(=O)CP(=O)(O)O)C(=O)O (stereo unspecified),inactive
11,O=C(CP(=O)(O)O)NCCCP(=O)(O)O,inactive
12,CCOC(=O)CCCC(N)P(=O)(OCC)OCC (stereo unspecified),inactive
13,CC(NC(=O)CP(=O)(O)O)P(=O)(O)O (stereo unspecified),inactive
14,CCOP(=O)(OCC)C(N)C1CCCCC1 (stereo unspecified),inactive
15,O=C(CP(=O)(O)O)NC(C1CCCC1)P(=O)(O)O (stereo unspecified),inactive
16,CCCC(NC(=O)CP(=O)(O)O)P(=O)(O)O (stereo in doubt; form 2),inactive
17,CCCC(NC(=O)CP(=O)(O)O)P(=O)(O)O (stereo in doubt; form 1),inactive
18,O=C(CP(=O)(O)O)NC(C1CCC1)P(=O)(O)O (stereo unspecified),inactive
19,O=C(CP(=O)(O)O)NC(CP(=O)(O)O)C(=O)O (stereo unspecified),inactive
20,CC(C)(C)C(NC(=O)CP(=O)(O)O)P(=O)(O)O (stereo unspecified),inactive
21,O=C(CP(=O)(O)O)NC(c1ccccc1)P(=O)(O)O (stereo unspecified),inactive
22,O=C(CP(=O)(O)O)NC1(P(=O)(O)O)CCCC1,inactive
23,CCOP(=O)(OCC)C(N)CCC(=O)OC (stereo unspecified),inactive
24,CC(C)C(NC(=O)CP(=O)(O)O)P(=O)(O)O (stereo unspecified),inactive
25,O=C(O)CCCC(NC(=O)CP(=O)(O)O)P(=O)(O)O (stereo unspecified),inactive

# System: KB
# Test: Inhibitory activity against human KB cell line
# Assay type: functional
# Details: read-out: ID50 (the source's name)
row,SMILES,IC50 [µg/mL]
1,CCOP(=O)(OCC)C(N)C(C)(C)C.O=C(O)C(=O)O (stereo unspecified),240
